Where two headings read alike, the source gives them in different places.
Tests used:
Type in all cases: cell-based
[1] = tested on: HCV 2a Rluc cells (NS5A chimeric genotype 2a JFH-1 replicon with genotype 2a J6 strain NS5A gene, M31 present); test: HCV replicon reporter assay, genotype 2a J6 (M31 present); conditions: Hepatitis C virus, read-out: 2a J6
Summary of the method: (§1)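 Renilla luciferase HCV replicon cells: dicistronic 1b Con1, 1a H77 or 2a JFH-1 replicons, or a JFH-1 chimera carrying J6 NS5A (M31 present). Compound in DMSO serial dilutions, 72 h incubation, then lysis and luciferase read. EC50 by non-linear regression.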

[2] = tested on: HCV 4a Rluc cells (NS5A chimeric genotype 1b Con1 replicon with genotype 4a NS5A gene); test: microbe, parasite or virus in culture; conditions: Hepatitis C virus, read-out: 4a
Summary of the method: (§2)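 Replicon cells stably carrying the listed RLuc-encoding dicistronic replicons were seeded and treated with DMSO serial dilutions of compound (10 mM stocks) diluted into culture medium. After 72 h, cells were lysed and Renilla luciferase activity measured. EC50 was derived by non-linear regression.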

[3] = tested on: HCV 1b RLuc cells (dicistronic genotype 1b Con1 replicon, RLuc reporter); test: microbe, parasite or virus in culture
Summary of the method: as §1

[4] = tested on: HCV 2a JFH-1 Rluc cells (dicistronic genotype 2a JFH-1 replicon, RLuc reporter); test: microbe, parasite or virus in culture; conditions: genotype 2a JFH-1 replicon, read-out: 2a JFH
Summary of the method: as §1

[5] = tested on: HCV 2b Rluc cells (NS5A chimeric genotype 2a JFH-1 replicon with genotype 2b MD2b-1 NS5A gene, M31 present); test: microbe, parasite or virus in culture; conditions: Hepatitis C virus, read-out: 2b
Summary of the method: as §2

[6] = tested on: HCV 3a RLuc cells (NS5A chimeric genotype 1b Con1 replicon with consensus genotype 3a NS5A gene); test: microbe, parasite or virus in culture
Summary of the method: as §2

[7] = tested on: HCV 1a RLuc cells (dicistronic genotype 1a H77 replicon, RLuc reporter); test: microbe, parasite or virus in culture; conditions: genotype 1a H77 replicon, read-out: 1a
Summary of the method: as §1

[8] = Hepatitis C virus, 72 h, read-out: 1b (nM)
[9] = Hepatitis C virus, 72 h, Table 1, 72 hours
[10] = Hepatitis C virus, read-out: 3a, Table 1, genotype 3a NS5A chimeric replicon
[11] = Hepatitis C virus, 72 h, Table 2, 72 hours
[12] = Hepatitis C virus, read-out: 1b (nM)
[13] = Hepatitis C virus, RLuc reporter
[14] = Hepatitis C virus, read-out: 3a, genotype 3a NS5A chimeric 1b Con1 replicon

| SMILES | EC50 [1] | EC50 [2] | EC50 [3, 8] | EC50 [4, 9] | EC50 [5] | EC50 [6, 10] | EC50 [7, 9] | EC50 ([3]; read-out: 1b) | EC50 ([4]; Table 2, 72 hours) | EC50 ([6]; read-out: 3a, Table 2, genotype 3a NS5A chimeric replicon) | EC50 ([7]; Table 2, 72 hours) | EC50 [4, 11] | EC50 ([6]; Hepatitis C virus, read-out: 3a, Table 2, genotype 3a NS5A chimeric replicon) | EC50 [7, 11] | EC50 [3, 12] | EC50 [4, 13] | EC50 [6, 14] | EC50 [7, 13] |
| --- | --- | --- | --- | --- | --- | --- | --- | --- | --- | --- | --- | --- | --- | --- | --- | --- | --- | --- |
| COC(=O)N[C@H](C(=O)N1CCC[C@H]1c1ncc(-c2ccc3c4c(ccc3c2)-c2ccc(-c3cnc([C@@H]5CCCN5C(=O)[C@H](NC(=O)OC)c5ccccc5)[nH]3)cc2CO4)[nH]1)C1CCOCC1 [Example 13] | 1 to 44 nM | 0.001 to 0.99 nM | 0.015 nM | 0.001 to 0.999 nM | 0.001 to 0.999 nM | 0.001 to 0.99 nM | 0.001 to 0.999 nM | – | – | – | – | – | – | – | – | – | – | – |
| COC(=O)N[C@H](C(=O)N1CCC[C@H]1c1ncc(-c2ccc3c4c(ccc3c2)-c2ccc(-c3cnc([C@@H]5CCCN5C(=O)[C@H](NC(=O)OC)c5ccccc5)[nH]3)cc2CO4)[nH]1)[C@@H](C)OC [Example 16] | 1 to 44 nM | 0.001 to 0.99 nM | 0.011 nM | 0.001 to 0.999 nM | 1 to 44 nM | 0.001 to 0.99 nM | 0.001 to 0.999 nM | – | – | – | – | – | – | – | – | – | – | – |
| COC(=O)N[C@H](C(=O)N1CCC[C@H]1c1ncc(-c2ccc3c4ccc(-c5cnc([C@@H]6CCCN6C(=O)[C@@H](NC(=O)OC)C(C)C)[nH]5)cc4c4ccccc4c3c2)[nH]1)C(C)C [Example 22] | > 44 nM | 0.001 to 0.99 nM | 0.005 nM | 0.001 to 0.999 nM | > 44 nM | 0.001 to 0.99 nM | 0.001 to 0.999 nM | – | – | – | – | – | – | – | – | – | – | – |
| COC(=O)N[C@H](C(=O)N1CCC[C@H]1c1ncc(-c2cc3c4c(c2)C(=O)c2cc(-c5cnc([C@@H]6CCCN6C(=O)[C@@H](NC(=O)OC)C(C)C)[nH]5)cc(c2-4)OC3)[nH]1)C(C)C [Example 24] | > 44 nM | 0.001 to 0.99 nM | 0.013 nM | 0.001 to 0.999 nM | > 44 nM | 0.001 to 0.99 nM | 0.001 to 0.999 nM | – | – | – | – | – | – | – | – | – | – | – |
| COC(=O)N[C@H](C(=O)N1CCC[C@H]1c1ncc(-c2ccc3cc(-c4ccc(-c5cnc([C@@H]6CCCN6C(=O)[C@H](NC(=O)OC)c6ccccc6)[nH]5)cc4)ccc3c2)[nH]1)C(C)C [Example 26] | 1 to 44 nM | 0.001 to 0.99 nM | – | – | 1 to 44 nM | – | – | 0.012 nM | 0.001 to 0.999 nM | 0.001 to 0.99 nM | 0.001 to 0.999 nM | – | – | – | – | – | – | – |
| COC(=O)N[C@H](C(=O)N1CCC[C@H]1c1nc2ccc3cc(-c4ccc5c(ccc6nc([C@@H]7[C@H]8CC[C@H](C8)N7C(=O)[C@@H](NC(=O)OC)C7CCOCC7)[nH]c65)c4)ccc3c2[nH]1)C(C)C [Example 95] | 0.001 to 0.999 nM | 0.001 to 0.99 nM | 0.028 nM | – | 1 to 44 nM | – | – | – | – | – | – | 0.001 to 0.999 nM | 0.001 to 0.99 nM | 0.001 to 0.999 nM | – | – | – | – |
| COC(=O)N[C@H](C(=O)N1CCC[C@H]1c1ncc(-c2ccc3cc(-c4ccc5c(c4)CCc4nc([C@@H]6CCCN6C(=O)[C@@H](NC(=O)OC)C(C)C)[nH]c4-5)ccc3c2)[nH]1)C(C)C [Example 114] | > 44 nM | 0.001 to 0.99 nM | – | – | > 44 nM | – | – | – | – | – | – | – | – | – | 0.011 nM | 1 to 44 nM | 1 to 4.99 nM | 0.001 to 0.999 nM |
| COC(=O)N[C@@H](C(=O)N1C[C@@H](OC)C[C@H]1c1ncc(-c2ccc(-c3ccc4cc(-c5cnc([C@@H]6CCCN6C(=O)[C@H](C(C)C)N(C)C(=O)OC)[nH]5)ccc4c3)cc2)[nH]1)c1ccccc1 [Example 122] | > 44 nM | 0.001 to 0.99 nM | – | – | > 44 nM | – | – | – | – | – | – | – | – | – | 0.009 nM | 0.001 to 0.999 nM | 0.001 to 0.99 nM | 0.001 to 0.999 nM |
| COC(=O)N[C@H](C(=O)N1C[C@@H](OC)C[C@H]1c1ncc(-c2ccc(-c3ccc4cc(-c5cnc([C@@H]6CCCN6C(=O)[C@H](NC(=O)OC)c6ccccc6)[nH]5)ccc4c3)cc2)[nH]1)C(C)C [Example 123] | > 44 nM | 0.001 to 0.99 nM | – | – | > 44 nM | – | – | – | – | – | – | – | – | – | 0.014 nM | 0.001 to 0.999 nM | 0.001 to 0.99 nM | 0.001 to 0.999 nM |
| COC(=O)N[C@H](C(=O)N1CCC[C@H]1c1ncc(-c2ccc3cc(-c4ccc(-c5cnc([C@@H]6CCCN6C(=O)[C@H](NC(=O)OC)c6ccccc6)[nH]5)cc4)ccc3c2)[nH]1)[C@@H](C)OC(C)F (stereo partly shown) [Example 128] | > 44 nM | 0.001 to 0.99 nM | – | – | > 44 nM | – | – | – | – | – | – | – | – | – | 0.005 nM | 0.001 to 0.999 nM | 0.001 to 0.99 nM | 0.001 to 0.999 nM |

— patent publication US10344019B2 (priority 2010, dated 2019)
